Results taken from publication PMC4185360 (Emerging Microbes & Infections, 2014).
“And” between values parts separate entries of the source, which are not always exact repeats. Equal entries are not always repeated. Structures can show the parent of a compound that is named as a salt. Where two headings read alike, the source gives them in different places.

Tests used:
[1] = system: EV71; test: Antiviral potency assay, viral load by qRT-PCR in RD cells; type: cell-based; settings: for IC90: read-out: IC90, EV71 replication (viral load by qRT-PCR)
[2] = system: coxsackievirus A16; type: cell-based, Coxsackie virus A16 (strain shzh05-1); settings: 50 µM
[3] = system: poliovirus-1 (Sabin); type: cell-based; settings: TCID50 reduction assay
[4] = system: EV71; test: Time-of-addition assay, single round viral replication in RD cells; type: cell-based; settings: 10 µM
Procedure: Single round viral replication is get by infecting RD cell at multiplicity of infection of 5, collecting at 16 h post infection, and testing culture supernatant and intracellular RNA at 16 h post infection.
(A) Time of addition assay. The viral load in supernatant represents the means±s.e.m. of results of experiment with three replicates, and the intracellular viral load represents the result of a single test. […] Data represents the means±s.e.m. of results of experiment with three replications.

[5] = system: EV71; test: Viral attachment assay (cell-virus adsorption at 4°C); type: cell-based; settings: Enterovirus A, incubated with cells and virus at 4°C, read-out: IC90, virus binding to the cell
[6] = system: EV71 particles; test: STD NMR assay of binding to EV71 particles; settings: inactivated, purified EV71; molar ratio 1:100
[7] = cited from earlier work
[8] = source not given; cited from earlier work
[9] = target: T1, CYP1A2 (Homo sapiens, UniProt P05177); test: in vitro; settings: microsomes
T1 sequence (P05177 1-516): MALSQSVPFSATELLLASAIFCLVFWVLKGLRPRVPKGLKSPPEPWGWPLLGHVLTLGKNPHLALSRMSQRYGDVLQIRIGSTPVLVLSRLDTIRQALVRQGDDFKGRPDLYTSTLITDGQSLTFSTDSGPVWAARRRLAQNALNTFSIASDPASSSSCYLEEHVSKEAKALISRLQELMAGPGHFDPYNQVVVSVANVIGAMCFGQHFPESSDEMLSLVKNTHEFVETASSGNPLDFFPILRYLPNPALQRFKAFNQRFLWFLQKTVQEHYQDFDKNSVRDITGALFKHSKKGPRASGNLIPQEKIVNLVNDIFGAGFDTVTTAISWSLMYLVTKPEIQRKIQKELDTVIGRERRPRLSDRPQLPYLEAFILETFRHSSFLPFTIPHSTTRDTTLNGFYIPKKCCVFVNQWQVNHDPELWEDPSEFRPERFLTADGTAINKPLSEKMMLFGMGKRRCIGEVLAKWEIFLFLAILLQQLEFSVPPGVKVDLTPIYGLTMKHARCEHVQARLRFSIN

[10] = target: T2, CYP2C9 (Homo sapiens, UniProt P11712); test: in vitro; settings: microsomes
[11] = target: T3, CYP2D6 (Homo sapiens, UniProt P10635); test: in vitro; settings: human microsomes, probe marker substrate cocktail, O-demethylation (CYP2D6)
[12] = target: CYP3A4 (Homo sapiens, UniProt P08684); test: in vitro; settings: human microsomes, probe marker substrate cocktail, 1′-hydroxylation (CYP3A4)
[13] = target: T2, CYP2C9; test: biochemical
[14] = target: T3, CYP2D6; test: biochemical
[15] = Cynomolgus monkey plasma pharmacokinetics; settings: male, iv, 4.37 mg/kg; for AUC(0-inf): AUC0-inf; for AUC(0-t): AUC0-last; for clearance: Cl; for Vd: Vdss
[16] = system: mouse-adapted EV71 strain MP10; test: In vivo anti-EV71 efficacy in 10-day-old ICR mice; settings: lethal dose EV71 MP10
[17] = system: EV71 FY-23; test: In vivo anti-EV71 efficacy in adult rhesus monkeys; settings: 50 mg/kg i.v. four times, between days 6 and 9 post-infection
[18] = Enterovirus A, EV71 isolate Fuyang573, RD cells
[19] = mean of 3 monkeys, 4.37 mg/kg i.v. bolus
[20] = monkey P101, 4.37 mg/kg i.v. bolus
[21] = monkey P102, 4.37 mg/kg i.v. bolus
[22] = monkey P103, 4.37 mg/kg i.v. bolus

T3 sequence (P10635 whole entry): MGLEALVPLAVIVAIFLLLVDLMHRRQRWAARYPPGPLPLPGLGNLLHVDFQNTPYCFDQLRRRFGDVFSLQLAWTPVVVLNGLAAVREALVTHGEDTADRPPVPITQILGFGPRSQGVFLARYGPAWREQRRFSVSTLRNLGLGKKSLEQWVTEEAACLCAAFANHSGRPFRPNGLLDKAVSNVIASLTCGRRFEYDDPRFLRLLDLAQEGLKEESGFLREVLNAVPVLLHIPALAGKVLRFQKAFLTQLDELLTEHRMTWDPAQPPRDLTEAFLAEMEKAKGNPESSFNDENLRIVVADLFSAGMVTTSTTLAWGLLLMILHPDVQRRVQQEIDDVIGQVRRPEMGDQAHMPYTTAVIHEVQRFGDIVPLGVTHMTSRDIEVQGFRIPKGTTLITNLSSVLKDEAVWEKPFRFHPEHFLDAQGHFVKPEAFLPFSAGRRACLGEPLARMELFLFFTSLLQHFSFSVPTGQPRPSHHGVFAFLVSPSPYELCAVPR
T2 sequence (P11712 whole entry): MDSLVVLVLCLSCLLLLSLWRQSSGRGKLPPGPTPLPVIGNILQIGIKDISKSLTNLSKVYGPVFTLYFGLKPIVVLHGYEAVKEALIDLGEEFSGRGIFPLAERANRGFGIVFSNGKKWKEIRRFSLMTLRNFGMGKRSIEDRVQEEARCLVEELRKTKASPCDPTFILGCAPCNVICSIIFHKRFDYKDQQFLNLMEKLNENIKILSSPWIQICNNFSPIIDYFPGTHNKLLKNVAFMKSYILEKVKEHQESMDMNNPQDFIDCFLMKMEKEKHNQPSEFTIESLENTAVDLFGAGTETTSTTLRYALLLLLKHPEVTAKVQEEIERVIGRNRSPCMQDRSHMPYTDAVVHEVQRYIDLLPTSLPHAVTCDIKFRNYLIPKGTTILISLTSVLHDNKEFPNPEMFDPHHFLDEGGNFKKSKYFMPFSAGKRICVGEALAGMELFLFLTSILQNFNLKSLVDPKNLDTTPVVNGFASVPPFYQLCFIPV
CYP3A4, sequence (P08684 whole entry): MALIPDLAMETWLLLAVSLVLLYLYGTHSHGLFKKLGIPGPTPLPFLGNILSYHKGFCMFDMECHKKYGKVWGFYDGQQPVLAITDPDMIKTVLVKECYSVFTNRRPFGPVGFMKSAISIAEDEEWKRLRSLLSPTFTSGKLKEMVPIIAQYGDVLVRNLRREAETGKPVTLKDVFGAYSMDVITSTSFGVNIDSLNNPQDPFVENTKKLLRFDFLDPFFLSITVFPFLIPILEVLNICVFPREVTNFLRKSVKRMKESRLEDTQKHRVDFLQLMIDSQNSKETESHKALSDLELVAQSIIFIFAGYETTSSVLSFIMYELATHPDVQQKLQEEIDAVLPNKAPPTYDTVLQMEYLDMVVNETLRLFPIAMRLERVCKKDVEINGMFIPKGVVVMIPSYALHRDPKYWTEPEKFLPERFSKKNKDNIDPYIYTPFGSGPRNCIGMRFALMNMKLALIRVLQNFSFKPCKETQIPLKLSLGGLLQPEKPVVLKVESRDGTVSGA

## O=S(=O)(O)c1cc(N=C=S)ccc1/C=C/c1ccc(N=C=S)cc1S(=O)(=O)O [DIDS, 4,4′-diisothiocyanatostilbene-2,2′-disulfonic acid disodium salt]
[1]; Enterovirus A, EV71, RD
  IC90: 10.3 µM

## Sucralfate sodium
[1]; EV71 isolate Fuyang573, RD cells
  IC90: 3.3 µM

## O=C(Nc1cccc(C(=O)Nc2ccc(S(=O)(=O)O)c3cc(S(=O)(=O)O)cc(S(=O)(=O)O)c23)c1)Nc1cccc(C(=O)Nc2ccc(S(=O)(=O)O)c3cc(S(=O)(=O)O)cc(S(=O)(=O)O)c23)c1 [NF 023, 8,8′-[carbonylbis(imino-3,1-phenylenecarbonylimino)]bis-1,3,5-naphthalene-trisulphonic acid, hexasodium salt]
[1]; [18]
  IC90: 8.9 µM

## heparin sodium salt
[1]
  IC90, EV71 replication: 24.3 mg/L

## Cc1nc(/N=N/c2cc(S(=O)(=O)O)ccc2S(=O)(=O)O)c(COP(=O)(O)O)c(C=O)c1O [iso-PPADS, pyridoxalphosphate-6-azophenyl-2′,5′-disulfonic acid tetrasodium salt]
[1]; [18]
  IC90: 6.4 µM

## Cc1ccc(C(=O)Nc2ccc(S(=O)(=O)O)c3cc(S(=O)(=O)O)cc(S(=O)(=O)O)c23)cc1NC(=O)c1cccc(NC(=O)Nc2cccc(C(=O)Nc3cc(C(=O)Nc4ccc(S(=O)(=O)O)c5cc(S(=O)(=O)O)cc(S(=O)(=O)O)c45)ccc3C)c2)c1 [suramin, Suramin sodium salt]
[2]
  reduction of coxsackievirus A16 replication: 10^6 TCID50/mL
[3]
  inhibition of poliovirus-1 (Sabin): not inhibited
[4]; added after adsorption
  effect on viral replication: no effect
[4]; added at the virus-cell adsorption stage
  decrease of viral replication: > 1 log10
[5]
  IC90: 6.17 µM
[6]
  STD NMR signals with EV71 particles: strong STD NMR signals
[7]
  half-life: long
[8]
  serum protein binding: high levels
[9]
  inhibition at 10 min, 10 µM: 40%
  inhibition at 10 min, 30 µM: 70%
  inhibition at 10 min, 100 µM: 89%
[10]
  inhibition at 10 min, 10 µM: 0%
  inhibition at 10 min, 30 µM: 8%
  inhibition at 10 min, 100 µM: 32%
[11]
  inhibition at 10 min, 10 µM: 7%
  inhibition at 10 min, 30 µM: 40%
  inhibition at 10 min, 100 µM: 49%
[12]
  inhibition at 10 min, 10 µM: 5%
  inhibition at 10 min, 30 µM: 16%
  inhibition at 10 min, 100 µM: 34%
[13]
  IC50: > 100 µM
[14]
  IC50: > 100 µM (2×) and 45.5 µM
[15]; [19]
  AUC(0-inf): 2330 µg·h/mL
  AUC(0-t): 1800 µg·h/mL
  clearance: 1.9 mL/h/kg
  Cmax: 142 µg/mL
  Tmax: 3.6 min
  Vd: 0.199 L/kg
[15]; [20]
  AUC(0-inf): 1960 µg·h/mL
  AUC(0-t): 1660 µg·h/mL
  clearance: 2.23 mL/h/kg
  Cmax: 169 µg/mL
  Tmax: 4.8 min
  Vd: 0.176 L/kg
[15]; [21]
  AUC(0-inf): 2400 µg·h/mL
  AUC(0-t): 1810 µg·h/mL
  clearance: 1.82 mL/h/kg
  Cmax: 117 µg/mL
  Tmax: 4.8 min
  Vd: 0.212 L/kg
[15]; [22]
  AUC(0-inf): 2620 µg·h/mL
  AUC(0-t): 1930 µg·h/mL
  clearance: 1.67 mL/h/kg
  Cmax: 141 µg/mL
  Tmax: 1.8 min
  Vd: 0.21 L/kg
[15]; C0, mean of 3 monkeys, 4.37 mg/kg i.v. bolus
  C0: 128 µg/mL
[15]; C0, monkey P101, 4.37 mg/kg i.v. bolus
  C0: 143 µg/mL
[15]; C0, monkey P102, 4.37 mg/kg i.v. bolus
  C0: 96.3 µg/mL
[15]; C0, monkey P103, 4.37 mg/kg i.v. bolus
  C0: 146 µg/mL
[15]; T1/2, mean of 3 monkeys, 4.37 mg/kg i.v. bolus
  half-life: 104 h
[15]; T1/2, monkey P101, 4.37 mg/kg i.v. bolus
  half-life: 69.1 h
[15]; T1/2, monkey P102, 4.37 mg/kg i.v. bolus
  half-life: 112 h
[15]; T1/2, monkey P103, 4.37 mg/kg i.v. bolus
  half-life: 130 h
[16]; 50 mg/kg i.p. twice daily for 7 days
  survival rate: 30%
[16]; mice
  decrease of mortality: 30%
[17]
  viral genomic RNA in serum: < 20 copies of viral genomic RNA/mL

## O=C(Nc1cc(C(=O)Nc2ccc(S(=O)(=O)O)cc2S(=O)(=O)O)cc(C(=O)Nc2ccc(S(=O)(=O)O)cc2S(=O)(=O)O)c1)Nc1cc(C(=O)Nc2ccc(S(=O)(=O)O)cc2S(=O)(=O)O)cc(C(=O)Nc2ccc(S(=O)(=O)O)cc2S(=O)(=O)O)c1 [NF 449, 4,4′,4″,4″′-[carbonylbis(imino-5,1,3-benzenetriyl-bis(carbonylimino))]tetrakis-1,3-benzenedisulfonic acid, octasodium salt]
[1]; [18]
  IC90: 0.9 µM

## Cc1nc(/N=N/c2ccc(S(=O)(=O)O)cc2S(=O)(=O)O)c(COP(=O)(O)O)c(C=O)c1O [PPADS, pyridoxal phosphate-6-azo (benzene-2,4-disulfonic acid) tetrasodium salt hydrate]
[1]; [18]
  IC90: 7 µM
